Data taken from article PMC5554537 (Frontiers in Pharmacology, 2017).
Values joined by “and” are separate entries in the source; they are usually repeats but may differ in a detail not shown here. Equal values may be shown once.

Columns and labels:
[1] = Metabolite profile in plasma, liver and HT29 tumor after i.p. SN30000; format: in vivo, NIH-III mice; details: SN30000 186 mg/kg i.p.; for Metabolite/SN30000 peak area, Tumor: HT29 tumor
Description: Mouse plasma and tissue homogenates, prepared from tissue samples in two volumes of ice-cold PBS using a TissueLyser II (Qiagen Sciences, Germantown, MD, United States) with 30 Hz oscillation frequency for 1 min, were processed by precipitating proteins with 3 vol MeOH and centrifuging (13,000 g, 4°C for 10 min). Supernatants were diluted into 3 vol water and analyzed with an Agilent model 6460 LC-MS/MS with an in-line photodiode array absorbance detector. Chromatographic separation was performed on a Zorbax Eclipse C18 column (100 mm × 3.0 mm, 1.8 μm; Agilent Technologies) at 35°C with a flow rate of 0.6 mL/min, with positive or negative mode electrospray ionization. The mobile phase was a gradient constructed using 80% MeCN/20% water/0.1% formic acid v/v/v (A) and 0.1% formic acid in water (B) from 10% A to 80% A with a total run time of […]. The gradient profile was: 0–4 min, 10% A; 4–11 min linear increase to 60% A; 11–12 min to 80% A; held for 1 min, returned to 10% A over 0.5 min and held for 2 min before the next sample injection. Absorbance spectra were collected from 230 to 600 nm with a reference wavelength of 550 nm. The mass/charge (m/z) ratio was scanned from 100 to 800 with a fragmentor voltage of 120 V. MS^2 with various collision energies was used for further characterization of some metabolites.
Metabolites were investigated in plasma, liver and HT29 tumors following i.p. dosing of female NIH-III mice with SN30000 at 186 mg/kg, which represents its previously determined MTD for this route and mouse strain ([Gu et al., 2014]). Representative chromatograms are shown in Supplementary Figure 1. A total of 19 metabolites (M1–M19) were provisionally identified (Figure 1 and Table 1). Assignments were confirmed by comparison with synthetic standards in the case of the 1-oxide M14 and nor-oxide M13, which have previously been reported as murine metabolites of SN30000 ([Wang et al., 2012]) and for M15 which is known to be the major photodegradation product of SN30000 ([Gu et al., 2014]). In addition, the previously unreported metabolite M18, which is the main plasma metabolite at late times, was isolated from pooled plasma of mice dosed with M14 in sufficient quantity for characterization by NMR (Supplementary Data). This identified M18 as an oxidation product of M14 with an alkanoic acid side-chain (Figure 1), an assignment that was confirmed by synthesis of the authentic compound which was identical by HPLC retention time, absorbance spectrum, elemental analysis, mass spectrum and NMR spectroscopy.

[2] = Compartmental plasma PK model; format: in vivo; set-up: Absorption rate constant Ka: unit not given here; details: for Central compartment volume V1: 1-Oxide and Nor-oxide values fixed; for Absorption rate constant Ka: i.p. dosing compartment, SN30000 value fixed
Excerpt: This model, shown schematically in Figure 9, is based on total (free + bound) plasma concentrations; the major metabolites (M14, M13, and M18) are explicit and clearance of SN30000 occurs only by reduction to M14. The i.p. bioavailability of SN30000 was modeled with an additional term for loss from the peritoneal compartment (kloss).

in vivo = details: NIH-III nude, mouse
Description: SN30000, M14 and M18 dosing solutions were prepared fresh in normal saline, filtered through 0.45 μm Acrodisc filters (Pall Life Sciences, Port Washington, NY, United States), protected from light in amber vials, and used within 3 h. Doses are expressed as mg of free base equivalent for SN30000 and M14, and free acid in the case of M18. […] Blood samples were collected from mice at various times by cardiac puncture, seconds after cervical dislocation, into ice-cold tubes containing K2EDTA. These were placed on ice immediately after collection and centrifuged (3,000 g, 3 min) within 10 min to harvest plasma. Plasma and tissues were rapidly frozen in liquid nitrogen before storage at -80°C for subsequent bioanalysis.
M18 was quantified by absorbance detection with reference to an external standard calibration curve.
Concentration-time data were analyzed by non-compartmental analysis using Phoenix WinNonlin (ver 6.4, Build 6.4.0768 Pharsight, United States); all AUC values were extrapolated to infinity using the linear trapezoidal rule. […] Model fits were further assessed by visual inspection of the residuals and predicted PK.

[3] = target: T1, mouse brain acetylcholinesterase (Mus musculus, UniProt P21836); assay: biochemical; details: for IC50: mouse brain homogenate, 37°C
T1 construct: from tissue; host or cells: mouse brain homogenate
T1 sequence (P21836 32-614): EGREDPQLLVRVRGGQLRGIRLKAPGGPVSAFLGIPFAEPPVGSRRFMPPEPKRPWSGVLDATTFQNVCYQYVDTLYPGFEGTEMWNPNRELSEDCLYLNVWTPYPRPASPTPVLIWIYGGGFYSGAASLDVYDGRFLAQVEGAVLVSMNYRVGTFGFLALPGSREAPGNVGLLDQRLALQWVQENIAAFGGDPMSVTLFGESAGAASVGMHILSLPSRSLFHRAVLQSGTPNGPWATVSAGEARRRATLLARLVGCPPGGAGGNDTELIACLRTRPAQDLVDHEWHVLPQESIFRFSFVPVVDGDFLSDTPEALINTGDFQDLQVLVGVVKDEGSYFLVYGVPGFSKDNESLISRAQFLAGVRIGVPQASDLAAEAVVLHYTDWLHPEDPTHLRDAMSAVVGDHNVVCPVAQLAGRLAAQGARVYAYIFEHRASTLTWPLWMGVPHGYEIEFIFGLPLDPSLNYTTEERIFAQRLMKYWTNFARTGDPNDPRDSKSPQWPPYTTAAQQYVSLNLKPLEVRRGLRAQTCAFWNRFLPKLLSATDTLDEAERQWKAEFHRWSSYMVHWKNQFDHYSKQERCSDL
Description: TABLE 10: Inhibition of mouse brain acetylcholinesterase activitya by SN30000 and related compounds […]
aThe acetylcholinesterase inhibition assay is based on Obregon et al., 2005. Mouse brain homogenate was prepared in potassium phosphate buffer (100 mM, pH 7.4), which was pre-incubated with dithiobisnitrobenzoate (final concentration 1 mM) at 37°C for 10 min. After adding acetylthiocholine (final concentration 0.6 mM), the formation of 5-thio-2-nitrobenzoate was measured by monitoring absorbance (Spectramax- M2 spectrophotometer) at 412 nm every 30 s for 10 min. Negative controls (DMSO or saline) and positive control […]
IC50 values are based on 3-4 deter minations per compound.

[4] = NIH-III, mouse, in vivo, model clearance of the compound, read-out: CL (converted)

| SMILES | Metabolite/SN30000 peak area, Tumor [1] | Metabolite/SN30000 peak area, Liver [1] | Metabolite/SN30000 peak area, Plasma [1] | Central compartment volume V1 [2] | IC50 [3] | Intercompartmental clearance Clic ([2]; NIH-III, mouse, in vivo) | Peripheral compartment volume V2 ([2]; NIH-III, mouse, in vivo) | clearance [2, 4] | Absorption rate constant Ka [2] | AUC (in vivo; in vivo, iv, 1.86 mg/kg) | half-life (in vivo; in vivo, iv, 1.86 mg/kg) | AUC (in vivo; in vivo, iv, 18.6 mg/kg) | half-life (in vivo; in vivo, iv, 18.6 mg/kg) | AUC (in vivo; in vivo, iv, 78.3 mg/kg) | half-life (in vivo; in vivo, iv, 78.3 mg/kg) | other results |
| --- | --- | --- | --- | --- | --- | --- | --- | --- | --- | --- | --- | --- | --- | --- | --- | --- |
| c1c2c(cc3nc(CCCN4CCOCC4)nnc13)CCC2 [M13] | 0.11 | 1.50 | 0.08 | 2.2 L/kg | – | – | – | – | – | – | – | – | – | – | – | clearance ([2]; NIH-III, mouse, plasma, other: i.p. and i.v. datasets fitted simultaneously, model clearance of the compound, read-out: CL (converted)): 76.7 L/h/kg; Vd ([2]; NIH-III, mouse, plasma, other: i.p. and i.v. datasets fitted simultaneously, read-out: Steady state volume VSS): 11.6 L/kg; Approximate % suppression per °C of CL ([2]; mouse, in vivo): ~23%; Peripheral compartment volume V2 ([2]; mouse, in vivo): 9.38 L/kg; AUC (in vivo; plasma, iv, 1.86 mg/kg): 4.7 nM·h; half-life (in vivo; plasma, iv, 1.86 mg/kg): 27.7 min; AUC (in vivo; plasma, iv, 18.6 mg/kg): 146 nM·h; half-life (in vivo; plasma, iv, 18.6 mg/kg): 47.1 min; AUC (in vivo; plasma, iv, 78.3 mg/kg): 3340 nM·h; half-life (in vivo; plasma, iv, 78.3 mg/kg): 38.9 min |
| [O-][n+]1nc(CCCN2CCOCC2)nc2cc3c(cc21)CCC3 [M14] | 0.41 | 5.18 | 0.35 | 2.2 L/kg | 58.3 µM and 58 µM | 4.64 L/h/kg | 3.51 L/kg | 61.1 L/h/kg | 4.43 | 42 nM·h | 12.3 min | 600 nM·h | 28.5 min | 11600 nM·h | 31.5 min | Temperature effect (N) on V1 ([2]; (1+ΔT)^-N): 0.48; Approximate % suppression per °C of CL ([2]; NIH-III, mouse, in vivo): ~82%; Approximate % suppression per °C of V1 ([2]; NIH-III, mouse, in vivo): ~28% |
| O=C(O)CCc1nc2cc3c(cc2[n+]([O-])n1)CCC3 [M18] | 1.63 | 0.60 | 1.14 | 0.43 L/kg | > 300 µM | – | – | 0.23 L/h/kg | – | 770 nM·h | – | 10100 nM·h | 101 min | 60800 nM·h | 75 min | Inhibition at 300 μM ([3]; mouse brain acetylcholinesterase, 300 μM): no inhibition |
| [O-][n+]1nc(CCCN2CCOCC2)[n+]([O-])c2cc3c(cc21)CCC3 [SN30000, 3-(3-Morpholinopropyl)-7,8-dihydro-6H-indeno[5,6-e][1,2,4]triazine 1,4-dioxide] | 1.00 | 1.00 | 1.00 | 1.95 L/kg | 131 µM | 1.12 L/h/kg | 0.64 L/kg | – | 60 | 530 nM·h | 8.03 min | 8100 nM·h | 27.6 min | 47000 nM·h | 23.9 min | Temperature effect (N) on Kloss for i.p. SN30000 ([2]; (1+ΔT)^-N): 2.80; Approximate % suppression per °C of Kloss for i.p. SN30000 ([2]; NIH-III, mouse, in vivo, ip): ~86%; clearance ([2]; NIH-III, mouse, in vivo, model clearance): 11.3 L/h/kg; Kloss for i.p. SN30000 ([2]; loss from peritoneal compartment): 67.48 L/h; clearance (in vivo; in vivo, 78 mg/kg): 5.04 L/h/kg; clearance (in vivo; in vivo, iv): 5 to 10 L/h/kg; Cmax (in vivo; in vivo, iv, 1.86 mg/kg): 1.86 ± 0.13 µM; Vd (in vivo; in vivo, iv, 1.86 mg/kg): 1.52 L/kg; clearance (in vivo; in vivo, iv, 1.86 mg/kg): 10.6 L/h/kg; Cmax (in vivo; in vivo, iv, 18.6 mg/kg): 25.2 ± 0.27 µM; Vd (in vivo; in vivo, iv, 18.6 mg/kg): 1.29 L/kg; clearance (in vivo; in vivo, iv, 18.6 mg/kg): 6.94 L/h/kg; Cmax (in vivo; in vivo, iv, 78.3 mg/kg): 81.9 ± 2.71 µM; Vd (in vivo; in vivo, iv, 78.3 mg/kg): 2.24 L/kg; clearance (in vivo; in vivo, iv, 78.3 mg/kg): 5.04 L/h/kg |
